Measurements reported in article PMC6321537 (Molecules, 2018).
In brackets after ≈: the same amount, converted by molar mass. Like-named read-outs stand apart in the source and are kept apart here.

Columns and labels:
[1] = Solubility measurements in injection media (excess powder, HPLC); format: physicochemical; details: for solubility at 72 h: thermodynamic from solid; for aqueous solubility as times that of the parent drug (PTX): relative to PTX 0.4 μg/mL
Method: The flow rate was 1 mL/min, with the mobile phase starting at 50% acetonitrile and 50% water and transitioning to 60% acetonitrile and 40% water at 13 min, then returning to 50% acetonitrile and 50% water at 25 min. Chromatographic peaks of the three compounds were identified based on their retention times and chromatographic responses. Peak area measurements were utilized to regress calibration curves to determine each compound.
The test system was shaken at 25 °C for 72 h, then centrifugated at 10,000 rpm for 10 min. Each supernate was collected and 0.22 μm filtered off, then determined by HPLC.

[2] = cited from earlier work
[3] = system: normal breast cells Hs578Bst; test: MTT cytotoxicity assay; format: cell-based
Method: (§1) In vitro anti-cancer effects against cancer cells and safety to normal cells of the prodrugs were evaluated by cytotoxicity.
(§2) MDA-MB-231 cells were seeded in a 96-well transparent plate, at a density of 5000 cells/well. […] After 72 h incubation, the plates were washed with HBSS and MTT solution was added. The final concentration of MTT in each well was 0.5 mg/mL. Then 4 h later, the solution on the plate was removed and the content was dissolved with DMSO [33].The absorption was measured at 490 nm and cell viability was calculated, cell viability% = OD of treated cells/OD of untreated cells × 100% [51].

[4] = system: breast cancer cells MDA-MB-231; test: MTT cytotoxicity assay; format: cell-based; details: Homo sapiens
Method: as §1, §2

[5] = system: ovarian cancer cells A2780; test: MTT cytotoxicity assay; format: cell-based; details: Homo sapiens
MDA-MB-231 cells = test: Annexin V-FITC/PI apoptosis assay (flow cytometry); format: cell-based; details: MDA-MB-231, 1 μM, 24 h
Method: Cell apoptosis was tested by an Annexin V-FITC/PI staining assay and analyzed by flow cytometry, the result is illustrated in Figure 6. According to Figure 6a, the four regions represent different cell stages. Q1 represents necrotic cells ([…]), Q2 and Q3 represent late apoptotic cells (Annexin V+/PI+) and early apoptotic cells (Annexin V+/PI–), and Q4 represents normal cells (Annexin V–/PI–).
MDA-MB-231 cells were seeded in a 6-well transparent plate, at a density of 5 × 10^5 cells/well. […] After 24 h incubation, the cells were harvested by trypsin, washed with HBSS, and 1 mL of binding buffer (containing Annexin V-FITC and PI) was added, final concentration of Annexin V-FITC and PI were both 1 μg/mL [52]. After that, the test system was incubated in the dark for 10 min, then analysis was immediately conducted by flow cytometry. The fluorescence intensity of Annexin V-FITC was measured at an excitation/emission wavelength of 488/530 nm, the fluorescence intensity of PI was measured at an excitation/emission wavelength of 488/617 nm. Each assay was repeated in triplicate.

[6] = Solubility of SG-PTX at various pH conditions; format: physicochemical
Method: An aqueous solution of different pH was adjusted by HCl or NaOH, Excess powder of SG-PTX was added to solutions of different pH, respectively. The test system was shaken at 25 °C for 72 h, then centrifugation at 10,000 rpm for 10 min. Each supernate was collected and 0.22 μm filtered off, then determined by HPLC.

[7] = Log P by miniaturized shake flask method (n-octanol/water); format: physicochemical; details: shaken 24 h, mean ± SD, n = 4
Method: Log P and was determined by a miniaturized shake flask method. Briefly, the organic phase consisted of n-octanol saturated with water. Respectively, the aqueous phase consisted of water saturated with n-octanol.

[8] = Solubility of SG-PTX in various formulations (surfactant solutions); format: physicochemical; details: for solubility at 72 h: 25 °C, aqueous with cosolvent or surfactant or cyclodextrin, thermodynamic from solid, no ethanol, read-out: solubility in formulation
Method: Solubility of SG-PTX in various formulations was tested, SG-PTX was added into formulations with different proportion (v/v) of water and surfactants. These solubility tests were carried out according to the same protocol as aqueous solubility assays.
Solutions of different surfactants (Cremophor EL, Tween-80, and PEG-400) were prepared at different concentrations of 2.5%, 5%, 10%, and 15% (v/v). Excess powder of SG-PTX was added into different formulations, respectively. The test system was shaken at 25 °C for 72 h, then centrifugation at 10,000 rpm for 10 min. Each supernate was collected and 0.22 μm filtered off, then determined by HPLC.

[9] = 25 °C, saline or isotonic, 5% glucose solution, 25 °C, shaken 72 h, mean ± SD, n = 4, read-out: Solubility, 5% Glucose
[10] = 25 °C, saline or isotonic, saline, 25 °C, shaken 72 h, mean ± SD, n = 4, read-out: Solubility, Saline
[11] = 25 °C, water, pure water, 25 °C, shaken 72 h, mean ± SD, n = 4, read-out: Solubility, Pure Water

**Q.** For `CC(=O)O[C@H]1C(=O)[C@@]2(C)[C@H]([C@H](OC(=O)c3ccccc3)[C@]3(O)C[C@H](OC(=O)[C@H](O)[C@@H](NC(=O)c4ccccc4)c4ccccc4)C(C)=C1C3(C)C)[C@]1(OC(C)=O)CO[C@@H]1C[C@@H]2O` [PTX, Paclitaxel, reference compound], which solubility at 72 h ([1]; 5% glucose solution, 25 °C, saline or isotonic, 5% glucose solution, 25 °C, shaken 72 h, mean ± SD, n = 4, read-out: Solubility, 5% Glucose) is on record?
**A.** < 1 µg/mL

**Q.** What about the solubility at 72 h ([1]; pure water, 25 °C, water, pure water, 25 °C, shaken 72 h, mean ± SD, n = 4, read-out: Solubility, Pure Water) of the same molecule?
**A.** < 1 µg/mL

**Q.** And the solubility at 72 h ([1]; saline, 25 °C, saline or isotonic, saline, 25 °C, shaken 72 h, mean ± SD, n = 4, read-out: Solubility, Saline)?
**A.** < 1 µg/mL

**Q.** And the “Log P” value [2]?
**A.** 3.97 [27]

**Q.** What about the IC50 ([3]; Hs578Bst normal breast cells, 72 h incubation, MTT, read-out: IC50) of the same molecule?
**A.** 632 nM

**Q.** What about the IC50 ([4]; MDA-MB-231, 72 h incubation, MTT, read-out: IC50) of the same molecule?
**A.** 30.5 nM

**Q.** And the IC50 ([5]; A2780, 72 h incubation, MTT, read-out: IC50)?
**A.** 194 nM

**Q.** And the “total percentage of apoptotic cells (late apoptosis + early apoptosis)” value (MDA-MB-231 cells)?
**A.** 37.5%

**Q.** What does the source list for `CC(=O)O[C@H]1C(=O)[C@@]2(C)[C@H]([C@H](OC(=O)c3ccccc3)[C@]3(O)C[C@H](OC(=O)[C@H](OC(=O)CCC(=O)OC4O[C@H](CO)[C@@H](O)[C@H](O)[C@H]4O)[C@@H](NC(=O)c4ccccc4)c4ccccc4)C(C)=C1C3(C)C)[C@]1(OC(C)=O)CO[C@@H]1C[C@@H]2O` (stereo partly shown) [SG-PTX, C2′-single glycosylated paclitaxel]?
**A.** solubility at 72 h [1, 9]: 17.9 ± 0.28 µg/mL (≈ 16 µM); solubility at 72 h [1, 10]: 17.83 ± 0.09 µg/mL (≈ 16 µM); solubility at 72 h [1, 11]: 17.9 µg/mL (≈ 16 µM); Solubility, Pure Water ([1]; pure water, 25 °C, shaken 72 h, mean ± SD, n = 4): 19.93 ± 4.07 µg/mL (≈ 17.9 µM); aqueous solubility as times that of the parent drug (PTX) [1]: 49.8 times; solubility at 72 h ([6]; aqueous solution, pH adjusted with HCl or NaOH, aqueous buffer, thermodynamic from solid, pH 9 and pH 10, water and two common injection media, 25 °C): ~27 µg/mL (≈ 24.2 µM); change of solubility with pH ([6]; pH level of 1 to 8): no significant change; IC50 ([3]; Hs578Bst, 72 h): 1670 nM; IC50 ([4]; MDA-MB-231, 72 h): 149 nM; logP at 24 h [7]: 2.77 ± 0.16; IC50 ([5]; A2780, 72 h): 1080 nM; solubility at 72 h ([8]; 2.5% (v/v) Cremophor EL in water): 807 µg/mL (≈ 723 µM); solubility at 72 h ([8]; 2.5% (v/v) Tween-80 in water): 468 µg/mL (≈ 419 µM); solubility at 72 h ([8]; 15% (v/v) Cremophor EL in water): 1320 µg/mL (≈ 1180 µM); solubility at 72 h ([8]; 15% (v/v) Tween-80 in water): 961 µg/mL (≈ 861 µM); solubility in formulation ([8]; PEG-400 in water, compared with Cremophor EL and Tween-80): the lowest; total percentage of apoptotic cells (late apoptosis + early apoptosis) (MDA-MB-231 cells): 21.23%

**Q.** With `CC(=O)O[C@H]1C(=O)[C@]2(C)[C@@H](OC(=O)CCC(=O)OC3O[C@H](CO)[C@@H](O)[C@H](O)[C@H]3O)C[C@H]3OC[C@@]3(OC(C)=O)[C@H]2[C@H](OC(=O)c2ccccc2)[C@]2(O)C[C@H](OC(=O)[C@H](OC(=O)CCC(=O)OC3O[C@H](CO)[C@@H](O)[C@H](O)[C@H]3O)[C@@H](NC(=O)c3ccccc3)c3ccccc3)C(C)=C1C2(C)C` (stereo partly shown) [DG-PTX, C7 and C2′-double glycosylated paclitaxel] as the molecule, how does the solubility at 72 h [1, 9] read?
**A.** 34.8 ± 4.22 µg/mL (≈ 25.2 µM)

**Q.** What about the solubility at 72 h [1, 10] of the same molecule?
**A.** 36.7 ± 2.05 µg/mL (≈ 26.6 µM)

**Q.** What about the solubility at 72 h [1, 11] of the same molecule?
**A.** 39 ± 5.66 µg/mL (≈ 28.3 µM)

**Q.** And the “aqueous solubility as times that of the parent drug (PTX)” value [1]?
**A.** 97.4 times

**Q.** And the IC50 ([3]; Hs578Bst, 72 h)?
**A.** > 2000 nM

**Q.** And the IC50 ([4]; MDA-MB-231, 72 h)?
**A.** 395 nM

**Q.** What about the logP at 24 h [7] of the same molecule?
**A.** 2.12 ± 0.08

**Q.** What about the IC50 ([5]; A2780, 72 h) of the same molecule?
**A.** 1610 nM

**Q.** And the “total percentage of apoptotic cells (late apoptosis + early apoptosis)” value (MDA-MB-231 cells)?
**A.** 14.6%
